Assay results as given in ChEMBL document CHEMBL2311459, “Naphthyridinone (NTD) integrase inhibitors: N1 protio and methyl combination substituent effects with C3 amide groups” (Bioorg Med Chem Lett, 2013).
pIC50: −log10 of the molar value.

Experiments:
[1] = molecular target: Human immunodeficiency virus type 1 integrase (Human immunodeficiency virus 1, UniProt Q7ZJM1); test: Inhibition of HIV1 integrase strand transfer activity
[2] = test system: Human immunodeficiency virus; test: Antiviral activity against HIV infected in human MT4 cells; assay type: functional, organism-based; conditions: Human immunodeficiency virus 1, MT4
[3] = test system: Human immunodeficiency virus; test: Antiviral activity against HIV; assay type: functional, organism-based; conditions: Human immunodeficiency virus 1
[4] = Therapeutic index, ratio of cytotoxicity against human MT4 cells to antiviral activity against HIV; assay type: cell-based; conditions: read-out: TI
[5] = test system: Human immunodeficiency virus; test: Antiviral activity against HIV in presence of 40 mg/mL of purified human serum albumin; assay type: functional, organism-based; conditions: Human immunodeficiency virus 1
[6] = AUC in CD rat at 5 mg/kg, po; assay type: ADME, organism-based; set-up: dose 5 mg/kg, route oral; conditions: plasma
[7] = Ratio of plasma concentration in CD rat at 1 mg/kg, iv and 5 mg/kg, po after 24 hrs to IC50 for HIV in presence of 40 mg/mL of purified human serum albumin; assay type: ADME, organism-based; conditions: in vivo
[8] = AUC in dog at 5 mg/kg, po; assay type: ADME, organism-based, Canis lupus familiaris; set-up: dose 5 mg/kg, route oral; conditions: plasma
[9] = Ratio of plasma concentration in dog at 1 mg/kg, iv and 5 mg/kg, po after 24 hrs to IC50 for HIV in presence of 40 mg/mL of purified human serum albumin; assay type: ADME, organism-based; conditions: in vivo
[10] = Half life in CD rat at 1 mg/kg, iv and 5 mg/kg, po; assay type: ADME, organism-based; conditions: in vivo
[11] = Ratio of plasma concentration in cynomolgus monkey at 1 mg/kg, iv and 5 mg/kg, po after 24 hrs to IC50 for HIV in presence of 40 mg/mL of purified human serum albumin; assay type: ADME, organism-based; conditions: in vivo
[12] = Plasma clearance in cynomolgus monkey at 1 mg/kg, iv and 5 mg/kg, po; assay type: ADME, organism-based, Macaca fascicularis
[13] = Plasma clearance in dog at 1 mg/kg, iv and 5 mg/kg, po; assay type: ADME, organism-based, Canis lupus familiaris
[14] = Half life in dog at 1 mg/kg, iv and 5 mg/kg, po; assay type: ADME, organism-based, Canis lupus familiaris; conditions: in vivo
[15] = Half life in cynomolgus monkey at 1 mg/kg, iv and 5 mg/kg, po; assay type: ADME, organism-based, Macaca fascicularis; conditions: in vivo
[16] = AUC (0 to 24 hrs) in cynomolgus monkey at 5 mg/kg, po; assay type: ADME, organism-based, Macaca fascicularis; set-up: time < 24 hr, dose 5 mg/kg, route oral; conditions: plasma

Human immunodeficiency virus type 1 integrase, sequence (Q7ZJM1 whole entry): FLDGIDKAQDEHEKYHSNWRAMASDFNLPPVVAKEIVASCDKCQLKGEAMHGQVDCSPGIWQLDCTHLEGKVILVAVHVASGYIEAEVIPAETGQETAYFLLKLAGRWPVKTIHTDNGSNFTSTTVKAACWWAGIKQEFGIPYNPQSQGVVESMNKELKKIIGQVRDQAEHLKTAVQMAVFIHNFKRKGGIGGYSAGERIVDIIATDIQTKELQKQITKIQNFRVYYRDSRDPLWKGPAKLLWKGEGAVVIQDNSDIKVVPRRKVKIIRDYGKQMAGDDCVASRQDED

pIC50 [1] | pIC50 [3] | pIC50 [5] | Compound | other results
8.52 | 8.15 | 7.11 | C[C@H](O)CNC(=O)c1c(O)c2ncc(Cc3ccc(F)cc3)cc2[nH]c1=O | 
7.96 | 8.40 | 7.39 | O=C(NCCCO)c1c(O)c2ncc(Cc3ccc(F)cc3)cc2[nH]c1=O | 
8.52 | 8.70 | 7.72 | CC(C)(CO)NC(=O)c1c(O)c2ncc(Cc3ccc(F)cc3)cc2[nH]c1=O | 
8.30 | 8.30 | 6.59 | CSCCNC(=O)c1c(O)c2ncc(Cc3ccc(F)cc3)cc2[nH]c1=O | 
8.30 | 8.22 | 7.29 | O=C(NCCO)c1c(O)c2ncc(Cc3ccc(F)cc3)cc2[nH]c1=O | AUC [6]: 3060 ng·h/mL; pIC50 [2]: 7.10; Ratio [7]: 0.8; selectivity ratio [4]: > 250
8.05 | 8.10 | 6.72 | CC(C)OCCCNC(=O)c1c(O)c2ncc(Cc3ccc(F)cc3)cc2[nH]c1=O | 
8.40 | 8.52 | 7.74 | C[C@H](CO)CNC(=O)c1c(O)c2ncc(Cc3ccc(F)cc3)cc2n(C)c1=O | 
8.30 | 8.15 | 7.48 | C[C@H](CO)NC(=O)c1c(O)c2ncc(Cc3ccc(F)cc3)cc2[nH]c1=O | AUC [6]: 6370 ng·h/mL; pIC50 [2]: 7.70; Ratio [7]: 0; selectivity ratio [4]: > 400
8.40 | 8.22 | 7.72 | C[C@@H](CO)NC(=O)c1c(O)c2ncc(Cc3ccc(F)cc3)cc2[nH]c1=O | 
8.22 | 8.15 | 6.55 | C[C@@H](O)CNC(=O)c1c(O)c2ncc(Cc3ccc(F)cc3)cc2[nH]c1=O | 
8.70 | 8.70 | 6.96 | C[C@H](O)CNC(=O)c1c(O)c2ncc(Cc3ccc(F)cc3)cc2n(C)c1=O | 
8.40 | 8.40 | 7.39 | CC(C)(CO)CNC(=O)c1c(O)c2ncc(Cc3ccc(F)cc3)cc2[nH]c1=O | 
8.05 | 8.40 | 7.19 | CCOCCNC(=O)c1c(O)c2ncc(Cc3ccc(F)cc3)cc2[nH]c1=O | 
8.30 | 8.30 | 7.46 | COCCNC(=O)c1c(O)c2ncc(Cc3ccc(F)cc3)cc2[nH]c1=O | AUC [6]: 1650 ng·h/mL; Ratio [7]: 0.1
7.35 |  |  | NC(=O)c1c(O)c2ncc(Cc3ccc(F)cc3)cc2[nH]c1=O | 
8.30 | 8.10 | 6.64 | CC(C)CCNC(=O)c1c(O)c2ncc(Cc3ccc(F)cc3)cc2[nH]c1=O | 
8.40 | 8.05 | 7.31 | CN(CCNC(=O)c1c(O)c2ncc(Cc3ccc(F)cc3)cc2[nH]c1=O)S(C)(=O)=O | 

The next lines start with the compound.

Compound | pIC50 [1] | pIC50 [3] | pIC50 [5] | other results
Cn1c(=O)c(C(=O)NCCN2CCOCC2)c(O)c2ncc(Cc3ccc(F)cc3)cc21 | 7.89 | 8.40 | 7.64 | pIC50 [2]: 7.19; selectivity ratio [4]: 165
Cn1c(=O)c(C(=O)NCCN2CCNC2=O)c(O)c2ncc(Cc3ccc(F)cc3)cc21 | 8.30 | 8.70 | 8.05 | AUC [6]: 3550 ng·h/mL; pIC50 [2]: 7.96; Ratio [7]: 0; selectivity ratio [4]: 1620
CC(=O)NCCNC(=O)c1c(O)c2ncc(Cc3ccc(F)cc3)cc2n(C)c1=O | 8.30 | 8.70 | 7.92 | pIC50 [2]: 7.66; selectivity ratio [4]: 807
Cn1c(=O)c(C(=O)NCCCO)c(O)c2ncc(Cc3ccc(F)cc3)cc21 | 8.30 | 9.00 | 7.40 | 
C[C@@H](CO)NC(=O)c1c(O)c2ncc(Cc3ccc(F)cc3)cc2n(C)c1=O | 8.40 | 9.00 | 7.82 | AUC [8]: 1120 ng·h/mL; AUC [6]: 22600 ng·h/mL; Ratio [9]: 0; Ratio [7]: 2.7
CN1CCN(CCCNC(=O)c2c(O)c3ncc(Cc4ccc(F)cc4)cc3[nH]c2=O)CC1 | 7.96 | 7.55 | 6.96 | 
O=C(NCCN1CCOCC1)c1c(O)c2ncc(Cc3ccc(F)cc3)cc2[nH]c1=O | 8.15 | 8.22 | 7.38 | pIC50 [2]: 7.49; selectivity ratio [4]: > 250
CCNC(=O)c1c(O)c2ncc(Cc3ccc(F)cc3)cc2n(C)c1=O | 8.40 | 8.70 | 6.19 | 
O=C(NCCCN1CCCC1)c1c(O)c2ncc(Cc3ccc(F)cc3)cc2[nH]c1=O | 7.64 | 7.41 | 6.96 | 
Cn1c(=O)c(C(=O)NCCCN2CCCC2=O)c(O)c2ncc(Cc3ccc(F)cc3)cc21 | 7.80 | 8.70 | 7.82 | 
Cn1c(=O)c(C(=O)NCC(F)F)c(O)c2ncc(Cc3ccc(F)cc3)cc21 | 8.30 | 9.00 | 5.54 | 
Cn1c(=O)c(C(=O)NC2(CO)CCCC2)c(O)c2ncc(Cc3ccc(F)cc3)cc21 | 8.15 | 8.52 | 6.74 | 
CN(CCNC(=O)c1c(O)c2ncc(Cc3ccc(F)cc3)cc2n(C)c1=O)S(C)(=O)=O | 8.30 | 9.00 | 8.15 | AUC [6]: 5810 ng·h/mL; pIC50 [2]: 8.15; Ratio [7]: 1.7; selectivity ratio [4]: > 7200
COCCNC(=O)c1c(O)c2ncc(Cc3ccc(F)cc3)cc2n(C)c1=O | 8.40 |  | 7.32 | AUC [8]: 1240 ng·h/mL; AUC [6]: 1850 ng·h/mL; Ratio [9]: 0; half-life [10]: 4 h; Ratio [7]: 0.1
O=C(NCCCN1CCCC1=O)c1c(O)c2ncc(Cc3ccc(F)cc3)cc2[nH]c1=O | 8.40 | 8.30 | 7.51 | 
C[C@H](CO)NC(=O)c1c(O)c2ncc(Cc3ccc(F)cc3)cc2n(C)c1=O | 8.10 | 8.70 | 7.96 | pIC50 [2]: 8.40; selectivity ratio [4]: > 12500
CNC(=O)c1c(O)c2ncc(Cc3ccc(F)cc3)cc2n(C)c1=O | 8.40 | 9.00 | 7.26 | AUC [8]: 13200 ng·h/mL; Ratio [11]: 9.2; clearance [12]: 2 mL/min/kg; clearance [13]: 8.6 mL/min/kg; half-life [14]: 1.6 h; Ratio [9]: 0.8; half-life [15]: 3.9 h; AUC(0-t) at 24 h [16]: 38600 ng·h/mL
O=C(NCCN1CCCCC1)c1c(O)c2ncc(Cc3ccc(F)cc3)cc2[nH]c1=O | 7.85 | 7.42 | 6.76 | 
Cn1c(=O)c(C(=O)NCCCN2CCCC2)c(O)c2ncc(Cc3ccc(F)cc3)cc21 | 8.22 | 8.05 | 7.47 | 
O=C(NCCCN1CCOCC1)c1c(O)c2ncc(Cc3ccc(F)cc3)cc2[nH]c1=O | 8.10 | 8.22 | 7.43 | 
O=C(NC1CCS(=O)(=O)CC1)c1c(O)c2ncc(Cc3ccc(F)cc3)cc2[nH]c1=O | 8.05 | 7.32 | 6.77 | 
Cn1c(=O)c(C(=O)NC(C)(C)CO)c(O)c2ncc(Cc3ccc(F)cc3)cc21 | 8.22 | 8.52 | 7.55 | 
CNC(=O)c1c(O)c2ncc(Cc3ccc(F)cc3)cc2[nH]c1=O | 8.22 | 8.52 |  | 
